The target in one data set is T1, IRAK4 kinase (Homo sapiens, UniProt Q9NWZ3).
T1 sequence (Q9NWZ3 1-460): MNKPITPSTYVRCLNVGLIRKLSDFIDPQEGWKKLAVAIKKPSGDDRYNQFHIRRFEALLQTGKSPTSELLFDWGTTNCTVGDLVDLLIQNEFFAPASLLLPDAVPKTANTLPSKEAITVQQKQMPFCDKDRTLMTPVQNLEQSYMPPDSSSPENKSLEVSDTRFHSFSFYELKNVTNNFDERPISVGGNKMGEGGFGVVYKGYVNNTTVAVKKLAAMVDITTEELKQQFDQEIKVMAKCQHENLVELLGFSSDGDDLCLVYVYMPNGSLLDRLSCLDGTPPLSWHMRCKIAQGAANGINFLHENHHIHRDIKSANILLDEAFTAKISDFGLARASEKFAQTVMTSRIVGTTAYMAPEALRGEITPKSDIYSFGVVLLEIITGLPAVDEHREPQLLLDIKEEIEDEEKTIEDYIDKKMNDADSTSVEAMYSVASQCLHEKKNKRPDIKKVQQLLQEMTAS
In words: IRAK4 kinase activity test (KinEASE-STK HTRF kit). In kind it is biochemical. As to conditions: IRAK4 kinase inhibition, 7 μM ATP, 37° C. 120 min. As to the method: KinEASE-STK Si serine/threonine kinase kit (Cisbio) was used to detect the inhibitory effect of the compound on IRAK4 kinase activity. The specific method was: the compound was dissolved in dimethyl sulfoxide, and then it was diluted with the buffer solution of the kit by equal gradient to make the final concentration range of the tested compound in the reaction system 10000 nM-0.038 nM, then 2.5 nM kinase, 1 μM biotinylated polypeptide substrate and 7 μM adenosine triphosphate (ATP) were added in sequence and incubated at 37° C. for 120 min. Subsequently, anti-phosphorylated serine/threonine antibody coupled with europium element compound and modified XL665 streptavidin were added to the reaction system to terminate the reaction. After incubating at room temperature for 1 h, the fluorescence intensity of each well at the emission wavelength of 620 nm and 665 nm and the excitation wavelength of 337 nm was determined in HTRF mode on the microplate reader EnVision (PerkinElmer), the ratio value was calculated using the formula Ratio=(665 nm/620 nm)×10^4. By comparing with the fluorescence intensity ratio of the control group, the inhibition rate of the compound at each concentration was calculated, and then the IC50 value of the compound was obtained by fitting the nonlinear curve with the logarithmic concentration-inhibition rate by GraphPad Prism 7.

The target of the next data set is T2, IKZF1 (Homo sapiens, UniProt Q13422+Q96SW2).
T2 construct: endogenous in cells; host or cells: L363 cells
In words: Degradation of IKZF1 in L363 cells by Western blot. The data set is classed as cell-based. To be noted: compound 1000 nM, 16 hours. As for the experimental part: (§1) The 24-well cell culture plate was inoculated with 0.95 mL L363 cells (Nanjing Co-bioer) per well with a cell density of 6×10^5 cells/well. The cell plate was placed in a 5% carbon dioxide incubator and cultured at 37° C. for 8 hours, then 50 μL of compound solution was added. The final concentration of the compound was 1000 nM. After continuing to culture for 16 hours, the cells were collected into a 1.5 mL centrifuge tube and centrifuged at 3000 rpm and 4° C. for 5 minutes. Cell precipitation was washed twice with 1×DPBS, resuspended cells were lysed with 100 μL lysate (cell lysate was Western and IP cell lysate (Beyotime), supplemented with 1 mM mixture of phenylmethylsulfonyl fluoride and protease inhibitor (Beyotime)), left on ice for 30 minutes, then centrifuged at 14000 g at 4° C. for 10 minutes, and the supernatant was taken to detect IKZF1 and IKZF3 protein level by Western blot.
(§2) The total protein concentration in the supernatant of cell lysis was determined by BCA protein quantitative kit (Tiangen). According to the concentration of total protein detected by BCA, the supernatant was adjusted to […] with PBS and 5×SDS-PAGE protein loading buffer (Beyotime), bathed in water at 100° C. for 10 minutes, then placed in ice bath for 5 minutes, centrifuged at 14000 g and 4° C. for 5 minutes, and then collected as WB loading sample. Prefabricated glue (KeyGEN) was used for protein electrophoresis with a loading amount of 10 μL (total protein 2 μg). After Tris-MOPS-SDS electrophoresis solution (Adamas), 120V constant pressure electrophoresis was performed. After electrophoresis, the protein on the adhesive strip was transferred to PVDF membrane with a constant current of […] for 50 minutes. After the membrane was transferred, the membrane was incubated in 5% bovine serum albumin solution for 2 hours at room temperature. After blocking, PVDF membranes were incubated with IKZF1 primary antibody (CST) and IKZF3 primary antibody (Abcam) overnight at 4°, the membranes were washed with TBST buffer (2.4 g Tris, 8.8 g NaCl, 1.5 mL Tween 20, pH adjusted to 7.4, constant volume to 1 L) for 30 minutes, incubated with secondary antibody (Abcam) for 2 hours at room temperature, finally incubated with Clarity Western ECL Substrate (BIO-RAD) for 5 minutes for luminescence development, chemiluminescence imaging system (Clinx, chemiScope 6200 Touch) was used for development and protein mapping photography. The protein map was analyzed by Clinx chemiluminescence analysis software for grayscale values. Using the formula: grayscale correction value=(target protein grayscale value/corresponding internal reference grayscale value)×10^3, the grayscale correction value of each sample was calculated. The degradation rate was calculated by comparing with the grayscale correction value of the control group.

Data set [1] can be described thus: Pharmacokinetic study in mice. The data set is classed as in vivo, SD mice. As for the experimental part: The following experimental scheme was used to study the pharmacokinetic behavior of the compound of the present invention in mice and evaluate its pharmacokinetic characteristics.
Experimental scheme: 3 healthy SD mice, male, weighing […], were given 100 mg/kg compound by gavage with a volume of 10 mL/kg, prepared with […] (w/v). Before the test, they were fasted for 12 hours and freely drank water. Food was uniformly consumed 4 h after administration.
Three healthy SD mice, male, weighing […], were given 1 mg/kg compound intravenously with a volume of 5 mL/kg, prepared with 5% DMSO/15% solutol %80% PBS (w/v). Before the test, they were fasted for 12 hours and freely drank water. Food was uniformly consumed 4 h after administration.
0.1 mL of venous blood was taken through the submaxillary venous plexus of mice at 0.08 h, 0.25 h, 0.5 h, 1 h, 2 h, 4 h, 8 h, 24 h after gavage administration and 0.08 h, 0.25 h, 0.5 h, 1 h, 2 h, 4 h, 8 h, 24 h after intravenous administration, placed in a heparin test tube, centrifuged at 11000 rpm for 5 min, and plasma was separated, the concentration of compounds in plasma was determined by liquid chromatography-tandem mass spectrometry.

For the next data set, the target named is T3, IKZF3 (Homo sapiens, UniProt Q96SW2+Q9UKT9).
T3 construct: endogenous in cells; host or cells: L363 cells
In words: Degradation of IKZF3 in L363 cells by Western blot. As to conditions: compound 1000 nM, 16 hours. The data set is classed as cell-based. As for the experimental part:
as §1, §2

The mark [2] stands for this setting: male, SD, mouse, po, gavage administration 100 mg/kg, plasma.

T3 sequence (Q9UKT9 whole entry): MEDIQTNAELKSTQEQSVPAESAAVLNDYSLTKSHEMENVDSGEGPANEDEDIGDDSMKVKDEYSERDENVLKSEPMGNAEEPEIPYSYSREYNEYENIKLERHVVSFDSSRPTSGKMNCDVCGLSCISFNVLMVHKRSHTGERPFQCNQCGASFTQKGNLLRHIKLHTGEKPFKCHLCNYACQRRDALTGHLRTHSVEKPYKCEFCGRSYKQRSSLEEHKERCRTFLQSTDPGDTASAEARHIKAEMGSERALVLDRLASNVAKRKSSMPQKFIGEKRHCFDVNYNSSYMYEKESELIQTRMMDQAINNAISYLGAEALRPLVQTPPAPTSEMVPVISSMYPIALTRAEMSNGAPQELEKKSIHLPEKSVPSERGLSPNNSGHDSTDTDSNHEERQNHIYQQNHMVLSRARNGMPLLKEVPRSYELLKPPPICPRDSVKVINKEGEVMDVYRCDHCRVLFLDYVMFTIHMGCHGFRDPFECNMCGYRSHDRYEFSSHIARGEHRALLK
T3 sequence (Q96SW2 whole entry): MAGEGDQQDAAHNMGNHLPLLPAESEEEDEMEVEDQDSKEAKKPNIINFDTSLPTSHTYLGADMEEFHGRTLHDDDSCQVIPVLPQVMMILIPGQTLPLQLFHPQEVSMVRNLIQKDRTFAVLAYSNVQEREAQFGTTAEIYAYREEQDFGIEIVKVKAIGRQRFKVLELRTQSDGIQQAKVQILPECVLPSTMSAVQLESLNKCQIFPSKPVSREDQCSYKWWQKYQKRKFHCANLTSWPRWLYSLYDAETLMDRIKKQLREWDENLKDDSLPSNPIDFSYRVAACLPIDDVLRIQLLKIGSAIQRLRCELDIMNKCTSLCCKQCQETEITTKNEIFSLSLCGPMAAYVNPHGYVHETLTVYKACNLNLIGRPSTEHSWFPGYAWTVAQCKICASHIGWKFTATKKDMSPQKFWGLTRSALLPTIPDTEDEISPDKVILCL
T3 sequence (Q16531 whole entry partner): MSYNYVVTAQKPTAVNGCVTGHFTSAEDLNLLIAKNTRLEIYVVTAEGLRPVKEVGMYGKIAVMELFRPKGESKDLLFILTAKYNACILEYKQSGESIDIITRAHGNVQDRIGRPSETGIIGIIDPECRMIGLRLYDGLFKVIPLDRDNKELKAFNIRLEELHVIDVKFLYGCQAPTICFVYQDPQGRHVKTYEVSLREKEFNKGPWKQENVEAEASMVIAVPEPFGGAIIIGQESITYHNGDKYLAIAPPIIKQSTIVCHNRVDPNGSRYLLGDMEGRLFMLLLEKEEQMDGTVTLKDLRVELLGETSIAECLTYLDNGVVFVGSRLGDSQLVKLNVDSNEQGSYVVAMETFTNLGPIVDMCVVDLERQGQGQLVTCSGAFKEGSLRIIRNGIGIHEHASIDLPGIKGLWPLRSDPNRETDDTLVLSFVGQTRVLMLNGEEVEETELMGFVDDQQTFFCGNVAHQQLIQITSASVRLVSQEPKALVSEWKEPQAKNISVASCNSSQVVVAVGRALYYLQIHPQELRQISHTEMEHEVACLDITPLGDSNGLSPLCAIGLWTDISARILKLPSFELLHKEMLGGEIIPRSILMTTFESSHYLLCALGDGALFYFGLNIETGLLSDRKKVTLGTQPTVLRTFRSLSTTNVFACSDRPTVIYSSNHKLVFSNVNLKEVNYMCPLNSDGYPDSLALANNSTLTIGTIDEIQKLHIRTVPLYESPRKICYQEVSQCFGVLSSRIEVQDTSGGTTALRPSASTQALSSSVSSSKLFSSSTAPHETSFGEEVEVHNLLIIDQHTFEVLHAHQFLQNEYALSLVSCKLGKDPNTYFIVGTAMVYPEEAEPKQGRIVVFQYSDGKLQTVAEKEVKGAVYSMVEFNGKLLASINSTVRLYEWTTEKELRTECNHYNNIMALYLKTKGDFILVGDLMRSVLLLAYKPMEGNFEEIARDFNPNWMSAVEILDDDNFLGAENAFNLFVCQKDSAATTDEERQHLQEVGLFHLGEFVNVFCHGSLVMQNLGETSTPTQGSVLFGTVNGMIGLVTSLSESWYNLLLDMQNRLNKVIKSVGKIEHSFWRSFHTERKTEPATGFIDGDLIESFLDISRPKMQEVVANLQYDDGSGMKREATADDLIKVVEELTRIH
T2 sequence (Q13422 whole entry): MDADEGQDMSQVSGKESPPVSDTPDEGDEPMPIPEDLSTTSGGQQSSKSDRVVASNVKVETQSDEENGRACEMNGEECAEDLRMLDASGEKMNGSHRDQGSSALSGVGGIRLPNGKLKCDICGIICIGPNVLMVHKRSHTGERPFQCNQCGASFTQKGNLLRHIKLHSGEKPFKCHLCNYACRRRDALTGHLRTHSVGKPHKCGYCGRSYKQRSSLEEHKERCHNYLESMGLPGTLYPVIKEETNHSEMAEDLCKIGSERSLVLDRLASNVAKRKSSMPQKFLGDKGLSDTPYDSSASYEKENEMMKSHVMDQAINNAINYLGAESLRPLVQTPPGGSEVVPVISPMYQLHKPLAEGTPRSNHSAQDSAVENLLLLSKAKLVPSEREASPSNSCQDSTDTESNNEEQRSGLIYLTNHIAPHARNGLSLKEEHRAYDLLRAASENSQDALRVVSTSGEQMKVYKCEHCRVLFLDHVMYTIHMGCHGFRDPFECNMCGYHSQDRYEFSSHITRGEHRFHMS
T2 sequence (Q96SW2 whole entry): as the sequence (Q96SW2 whole entry) above
T2 sequence (Q16531 whole entry partner): as the sequence (Q16531 whole entry partner) above

Take `CC(C)(O)c1cc2nn(C3CCN(CCCC4CCN(c5ccc6c(c5)C(=O)N(C5CCC(=O)NC5=O)C6=O)CC4)CC3)cc2cc1NC(=O)c1cccc(C(F)(F)F)n1` (stereo not drawn) [Example 6, N-(2-(1-(3-(1-(2-(2,6-dioxopiperidin-3-yl)-1,3-dioxoisoindolin-5-yl)piperidin-4-yl)propyl)piperidin-4-yl)-6-(2-hydroxyprop-2-yl)-2H-indazol-5-yl)-6-(trifluoromethyl) pyridinecarboxamide]: the IC50 against IRAK4 kinase amounted to 55.7 nM. On IKZF1, the “IKZF1 degradation rate (%)” value is 26.7 ± 2.4%. In data set [1] (intravenous injection 1 mg/kg), this compound showed a CL_pred of 6.7 mL/min/kg and a Vss_pred of 4.6 L/kg. The compound also registered an AUC(0-t) in data set [1] (male, SD, mouse, intravenous injection 1 mg/kg, plasma) of 2150 ng·h/mL. This compound had a bioavailability in data set [1] (male, SD, mouse, plasma, po, gavage 100 mg/kg vs intravenous 1 mg/kg) of 14.2%. For the same compound, in data set [1] (setting [2]), the AUC(0-t) was found to be 30500 ng·h/mL and the highest level (Cmax) was 1860 ng/mL. For the same compound, at IKZF3, the “IKZF3 degradation rate (%)” value was found to be 8.4 ± 6.0%.

As usually defined, the IC50 is the concentration that gives 50% inhibition. For orientation: AUC(0-t) means exposure summed from dosing to a finite time, without extrapolation to infinity. A word on the bioavailability: it is the share of a dose that reaches the circulation, judged against a reference dose that is usually intravenous. A low value points to poor availability. In general, Cmax refers to the peak of the concentration-time curve.

These data come from US12624019B2, “Indazole derivative, and preparation method therefor and use thereof” (Leadingtac Pharmaceutical (Shaoxing) Co., Ltd., priority 2020, dated 2026).
